In US6525001B1, “Substituted pyrimidine and pyridine herbicides” (Mid-American Commercialization Corporation, priority 1997, dated 2003):

What was measured:
Assay type in all cases: in vivo
[1] = tested on: large crabgrass (Digitaria sanguinalis); assay: Test C; set-up: key: 0 was no effect; 100 was complete control
[2] = tested on: itchgrass (Rottboellia exaltata); assay: Test E pre-/postemergence/post directed
Outline: (§1)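 Injury was scored visually on a 0 to 100 scale (100 = complete control) 13 to 21 days after treatment of greenhouse-grown plants. Test chemicals, in a surfactant-containing non-phytotoxic solvent, were sprayed onto soil within a day of planting, onto plants at the two to four leaf stage, or directed at the base of the plants.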

[3] = tested on: Spanishneedles (Bidens bipinnata); assay: Test E pre-/postemergence/post directed
Outline: as §1

[4] = tested on: alexandergrass (Brachiaria plantaginea); assay: Test E pre-/postemergence/post directed
Outline: as §1

[5] = tested on: bermudagrass (Cynodon dactylon); assay: Test E pre-/postemergence/post directed
Outline: as §1

[6] = tested on: sandbur (Cenchrus echinatus); assay: Test E pre-/postemergence/post directed; settings: PREEMERGENCE
Outline: as §1

[7] = tested on: common ragweed (Ambrosia elatior); assay: Test E pre-/postemergence/post directed
Outline: as §1

[8] = tested on: large crabgrass (Digitaria sanguinalis); assay: Test E pre-/postemergence/post directed
Outline: as §1

[9] = tested on: common groundsel (Senecio vulgaris); assay: Test E pre-/postemergence/post directed
Outline: as §1

[10] = tested on: pitted morningglory (Ipomoea lacunosa); assay: Test E pre-/postemergence/post directed
Outline: as §1

[11] = tested on: johnson grass (Sorghum halepense); assay: Test E pre-/postemergence/post directed
Outline: as §1

[12] = tested on: surinam grass (Brachiaria decumbens); assay: Test E pre-/postemergence/post directed
Outline: as §1

[13] = tested on: arrowleaf sida (Sida rhombifolia); assay: Test C
[14] = tested on: lambsquarters (Chenopodium album); assay: Test C; set-up: key: 0 was no effect; 100 was complete control
[15] = tested on: fall panicum (Panicum dichotomiflorum); assay: Test C; set-up: key: 0 was no effect; 100 was complete control
[16] = tested on: eastern black nightshade (Solanum ptycanthum); assay: Test C; set-up: key: 0 was no effect; 100 was complete control
[17] = tested on: ivyleaf morningglory (Ipomoea hederacea); assay: Test C; set-up: key: 0 was no effect; 100 was complete control
[18] = tested on: barnyardgrass (Echinochloa crus-galli); assay: Test C
[19] = tested on: purple nutsedge (Cyperus rotundus); assay: Test E pre-/postemergence/post directed; set-up: key: 0 is no injury; 100 is complete control
Outline: as §1

[20] = tested on: redroot pigweed (Amaranthus retroflexus); assay: Test C; set-up: key: 0 was no effect; 100 was complete control
[21] = tested on: wild poinsettia (Euphorbia heterophylla); assay: Test C; set-up: key: 0 was no effect; 100 was complete control

Cc1cnc(-c2ccc(C(F)(F)F)cc2)nc1Cn1ccc(C(F)(F)F)n1 [compound 9]
Plant response rating, Large crabgrass ([1]; POSTEMERGENCE, Rate 35 g/ha): 20
Plant response rating, Large crabgrass ([1]; POSTEMERGENCE, Rate 70 g/ha): 40
Plant response rating, Large crabgrass ([1]; POSTEMERGENCE, Rate 140 g/ha): 50
Plant response rating, Large crabgrass ([1]; PREEMERGENCE, Rate 35 g/ha): 95
Plant response rating, Large crabgrass ([1]; PREEMERGENCE, Rate 70 g/ha): 100
Plant response rating, Large crabgrass ([1]; PREEMERGENCE, Rate 140 g/ha): 100
Plant response rating, Itchgrass ([2]; POSTEMERGENCE, Rate 125 g/ha): 30
Plant response rating, Itchgrass ([2]; POSTEMERGENCE, Rate 250 g/ha): 30
Plant response rating, Itchgrass ([2]; PREEMERGENCE, Rate 64 g/ha): 85
Plant response rating, Spanishneedles ([3]; POSTEMERGENCE, Rate 125 g/ha): 10
Plant response rating, Spanishneedles ([3]; POSTEMERGENCE, Rate 250 g/ha): 15
Plant response rating, Spanishneedles ([3]; PREEMERGENCE, Rate 64 g/ha): 20
Plant response rating, Spanishneedles ([3]; PREEMERGENCE, Rate 125 g/ha): 30
Plant response rating, Spanishneedles ([3]; PREEMERGENCE, Rate 250 g/ha): 60
Plant response rating, Alexandergrass ([4]; POSTEMERGENCE, Rate 125 g/ha): 10
Plant response rating, Alexandergrass ([4]; POSTEMERGENCE, Rate 250 g/ha): 10
Plant response rating, Alexandergrass ([4]; PREEMERGENCE, Rate 32 g/ha): 30
Plant response rating, Alexandergrass ([4]; PREEMERGENCE, Rate 64 g/ha): 65
Plant response rating, Alexandergrass ([4]; PREEMERGENCE, Rate 125 g/ha): 65
Plant response rating, Bermudagrass ([5]; POSTEMERGENCE, Rate 125 g/ha): 10
Plant response rating, Bermudagrass ([5]; POSTEMERGENCE, Rate 250 g/ha): 10
Plant response rating, Bermudagrass ([5]; PREEMERGENCE, Rate 32 g/ha): 70
Plant response rating, Bermudagrass ([5]; PREEMERGENCE, Rate 64 g/ha): 98
Plant response rating, Sandbur ([6]; Rate 125 g/ha): 10
Plant response rating, Sandbur ([6]; Rate 250 g/ha): 20
Plant response rating, Com. ragweed ([7]; POSTEMERGENCE, Rate 125 g/ha): 10
Plant response rating, Com. ragweed ([7]; POSTEMERGENCE, Rate 250 g/ha): 10
Plant response rating, Com. ragweed ([7]; PREEMERGENCE, Rate 32 g/ha): 10
Plant response rating, Com. ragweed ([7]; PREEMERGENCE, Rate 125 g/ha): 98
Plant response rating, Large crabgrass ([8]; POSTEMERGENCE, Rate 125 g/ha): 5
Plant response rating, Large crabgrass ([8]; POSTEMERGENCE, Rate 250 g/ha): 10
Plant response rating, Large crabgrass ([8]; PREEMERGENCE, Rate 32 g/ha): 70
Plant response rating, Com. groundsel ([9]; POSTEMERGENCE, Rate 125 g/ha): 25
Plant response rating, Com. groundsel ([9]; POSTEMERGENCE, Rate 250 g/ha): 30
Plant response rating, Com. groundsel ([9]; PREEMERGENCE, Rate 32 g/ha): 98
Plant response rating, P. morninglory ([10]; POSTEMERGENCE, Rate 125 g/ha): 40
Plant response rating, P. morninglory ([10]; POSTEMERGENCE, Rate 250 g/ha): 50
Plant response rating, P. morninglory ([10]; PREEMERGENCE, Rate 32 g/ha): 45
Plant response rating, P. morninglory ([10]; PREEMERGENCE, Rate 64 g/ha): 60
Plant response rating, P. morninglory ([10]; PREEMERGENCE, Rate 125 g/ha): 75
Plant response rating, Johnsongrass ([11]; POSTEMERGENCE, Rate 125 g/ha): 85
Plant response rating, Johnsongrass ([11]; POSTEMERGENCE, Rate 250 g/ha): 85
Plant response rating, Johnsongrass ([11]; PREEMERGENCE, Rate 32 g/ha): 55
Plant response rating, Johnsongrass ([11]; PREEMERGENCE, Rate 64 g/ha): 75
Plant response rating, Johnsongrass ([11]; PREEMERGENCE, Rate 125 g/ha): 85
Plant response rating, Johnsongrass ([11]; PREEMERGENCE, Rate 250 g/ha): 90
Plant response rating, Surinam grass ([12]; POSTEMERGENCE, Rate 125 g/ha): 10
Plant response rating, Surinam grass ([12]; POSTEMERGENCE, Rate 250 g/ha): 10
Plant response rating, Surinam grass ([12]; PREEMERGENCE, Rate 64 g/ha): 10
Plant response rating, Surinam grass ([12]; PREEMERGENCE, Rate 125 g/ha): 20
Plant response rating, Arrowleaf sida ([13]; POSTEMERGENCE, Rate 35 g/ha): 80
Plant response rating, Arrowleaf sida ([13]; POSTEMERGENCE, Rate 70 g/ha): 90
Plant response rating, Arrowleaf sida ([13]; POSTEMERGENCE, Rate 140 g/ha): 90
Plant response rating, Arrowleaf sida ([13]; PREEMERGENCE, Rate 35 g/ha): 90
Plant response rating, Arrowleaf sida ([13]; PREEMERGENCE, Rate 70 g/ha): 95
Plant response rating, Arrowleaf sida ([13]; PREEMERGENCE, Rate 140 g/ha): 95
Plant response rating, Lambsquarters ([14]; POSTEMERGENCE, Rate 35 g/ha): 75
Plant response rating, Lambsquarters ([14]; POSTEMERGENCE, Rate 70 g/ha): 80
Plant response rating, Lambsquarters ([14]; POSTEMERGENCE, Rate 140 g/ha): 100
Plant response rating, Lambsquarters ([14]; PREEMERGENCE, Rate 35 g/ha): 95
Plant response rating, Lambsquarters ([14]; PREEMERGENCE, Rate 70 g/ha): 100
Plant response rating, Lambsquarters ([14]; PREEMERGENCE, Rate 140 g/ha): 100
Plant response rating, Fall panicum ([15]; POSTEMERGENCE, Rate 35 g/ha): 5
Plant response rating, Fall panicum ([15]; POSTEMERGENCE, Rate 70 g/ha): 20
Plant response rating, Fall panicum ([15]; POSTEMERGENCE, Rate 140 g/ha): 30
Plant response rating, Fall panicum ([15]; PREEMERGENCE, Rate 35 g/ha): 85
Plant response rating, Fall panicum ([15]; PREEMERGENCE, Rate 70 g/ha): 90
Plant response rating, Fall panicum ([15]; PREEMERGENCE, Rate 140 g/ha): 100
Plant response rating, E. blacknightsh ([16]; POSTEMERGENCE, Rate 35 g/ha): 100
Plant response rating, E. blacknightsh ([16]; POSTEMERGENCE, Rate 140 g/ha): 100
Plant response rating, E. blacknightsh ([16]; PREEMERGENCE, Rate 35 g/ha): 95
Plant response rating, E. blacknightsh ([16]; PREEMERGENCE, Rate 70 g/ha): 100
Plant response rating, E. blacknightsh ([16]; PREEMERGENCE, Rate 140 g/ha): 95
Plant response rating, I. morningglory ([17]; POSTEMERGENCE, Rate 35 g/ha): 50
Plant response rating, I. morningglory ([17]; POSTEMERGENCE, Rate 70 g/ha): 60
Plant response rating, I. morningglory ([17]; POSTEMERGENCE, Rate 140 g/ha): 100
Plant response rating, I. morningglory ([17]; PREEMERGENCE, Rate 35 g/ha): 20
Plant response rating, I. morningglory ([17]; PREEMERGENCE, Rate 70 g/ha): 50
Plant response rating, I. morningglory ([17]; PREEMERGENCE, Rate 140 g/ha): 50
Plant response rating, Barnyardgrass ([18]; POSTEMERGENCE, Rate 35 g/ha): 10
Plant response rating, Barnyardgrass ([18]; POSTEMERGENCE, Rate 70 g/ha): 25
Plant response rating, Barnyardgrass ([18]; POSTEMERGENCE, Rate 140 g/ha): 25
Plant response rating, Barnyardgrass ([18]; PREEMERGENCE, Rate 35 g/ha): 10
Plant response rating, Barnyardgrass ([18]; PREEMERGENCE, Rate 70 g/ha): 50
Plant response rating, Barnyardgrass ([18]; PREEMERGENCE, Rate 140 g/ha): 50
Plant response rating, Purple nutsedge ([19]; POSTEMERGENCE, Rate 125 g/ha): 0
Plant response rating, Purple nutsedge ([19]; POSTEMERGENCE, Rate 250 g/ha): 0
Plant response rating, Purple nutsedge ([19]; PREEMERGENCE, Rate 32 g/ha): 0
Plant response rating, Purple nutsedge ([19]; PREEMERGENCE, Rate 64 g/ha): 0
Plant response rating, Purple nutsedge ([19]; PREEMERGENCE, Rate 125 g/ha): 0
Plant response rating, Purple nutsedge ([19]; PREEMERGENCE, Rate 250 g/ha): 0
Plant response rating, Redroot pigweed ([20]; POSTEMERGENCE, Rate 35 g/ha): 60
Plant response rating, Redroot pigweed ([20]; POSTEMERGENCE, Rate 70 g/ha): 70
Plant response rating, Redroot pigweed ([20]; PREEMERGENCE, Rate 35 g/ha): 100
Plant response rating, Redroot pigweed ([20]; PREEMERGENCE, Rate 70 g/ha): 100
Plant response rating, Redroot pigweed ([20]; PREEMERGENCE, Rate 140 g/ha): 100
Plant response rating, Wild poinsettia ([21]; POSTEMERGENCE, Rate 35 g/ha): 90
Plant response rating, Wild poinsettia ([21]; POSTEMERGENCE, Rate 70 g/ha): 90
Plant response rating, Wild poinsettia ([21]; POSTEMERGENCE, Rate 140 g/ha): 100
Plant response rating, Wild poinsettia ([21]; PREEMERGENCE, Rate 35 g/ha): 10
Plant response rating, Wild poinsettia ([21]; PREEMERGENCE, Rate 70 g/ha): 50
Plant response rating, Wild poinsettia ([21]; PREEMERGENCE, Rate 140 g/ha): 50
